Data as given in patent US8623871B2, “Substituted biaryl compounds for inflammation and immune-related uses” (Synta Pharmaceuticals Corp., priority 2006, dated 2014).
Where a name gives a salt, the structure may show the parent alone.

system: IL-2 production; test: Inhibition of IL-2 production in PHA-activated Jurkat cells (ELISA); assay type: cell-based; settings: Homo sapiens, 20 h, PHA 2.5 μg/mL, IL-2 ELISA
Method: Jurkat cells were placed in a 96 well plate (0.5 million cells per well in 1% FBS medium) then a test compound of this invention was added at different concentrations. After 10 minutes, the cells were activated with PHA (final concentration 2.5 μg/mL) and incubated for 20 hours at 37° C. under CO2. The final volume was 200 μL. Following incubation, the cells were centrifuged and the supernatants collected and stored at −70° C. prior to assaying for IL-2 production. A commercial ELISA kit (IL-2 Eli-pair, Diaclone Research, Besancon, France) was used to detect production of IL-2, from which dose response curves were obtained. The IC50 value was calculated as the concentration at which 50% of maximum IL-2 production after stimulation was inhibited versus a non-stimulation control.

| SMILES | IC50 [nM] |
| --- | --- |
| Cc1ccc(-c2ncco2)cc1-c1ccc(NC(=O)C2CCCCN2C)cc1 (centres unmarked) [Compound 8, 1-Methyl-piperidine-2-carboxylic acid (2′-methyl-5′-oxazol-2-yl-biphenyl-4-yl)-amide] | 100 to 500 |
| O=C(Nc1ccc(-c2cc(C(F)(F)F)ccc2Cl)cc1)C1CCCC1 [Compound 108, N-(2′-chloro-5′-(trifluoromethyl)biphenyl-4-yl)cyclopentanecarboxamide] | 20 to 50 |
| Cc1ccc(-c2ncco2)cc1-c1ccc(NC(=O)C2CCCCC2)cc1 [Compound 106, N-(2′-methyl-5′-(oxazol-2-yl)biphenyl-4-yl)cyclohexanecarboxamide] | < 20 |
| O=C(Nc1ccc(-c2cc(C(F)(F)F)ccc2Cl)cc1)C1CCCCC1 [Compound 107, N-(2′-chloro-5′-(trifluoromethyl)biphenyl-4-yl)cyclohexanecarboxamide] | < 20 |
| CCCC(=O)Nc1ccc(-c2cc(-c3ncco3)ccc2C)cc1 [Compound 3, N-(2′-Methyl-5′-oxazol-2-yl-biphenyl-4-yl)-butyramide] | < 20 |
| Cc1ccc(-c2ncco2)cc1-c1ccc(NC(=O)[C@@H](N)C(C)C)cc1 (stereo in doubt) [Compound 123, 2-Amino-3-methyl-N-(2′-methyl-5′-oxazol-2-yl-biphenyl-4-yl)-butyramide] | > 500 |
| Cc1ccc(-c2ncco2)cc1-c1ccc(NC(=O)C(C)C)cc1 [Compound 4, N-(2′-Methyl-5′-oxazol-2-yl-biphenyl-4-yl)-isobutyramide] | < 20 |
| Cc1ccc(-c2ncco2)cc1-c1ccc(NC(=O)Cc2ccc(Cl)cc2)cc1 [Compound 35, 2-(4-Chloro-phenyl)-N-(2′-methyl-5′-oxazol-2-yl-biphenyl-4-yl)-acetamide] | 100 to 500 |
| CC(=O)Nc1ccc(-c2cc(-c3ncco3)ccc2C)cc1 [Compound 1, N-(2′-Methyl-5′-oxazol-2-yl-biphenyl-4-yl)-acetamide] | > 500 |
| Cc1ccc(-c2ncco2)cc1-c1ccc(NC(=O)C(N)CC(C)C)cc1 (centres unmarked) [Compound 10, 2-Amino-4-methyl-pentanoic acid (2′-methyl-5′-oxazol-2-yl-biphenyl-4-yl)-amide] | > 500 |
| CCC(C(=O)Nc1ccc(-c2cc(-c3ncco3)ccc2C)cc1)N(C)C (centres unmarked) [Compound 9, 2-Dimethylamino-N-(2′-methyl-5′-oxazol-2-yl-biphenyl-4-yl)-butyramide Hydrochloride] | > 500 |
| Cc1ccc(-c2ncco2)cc1-c1ccc(NC(=O)/C=C/c2ccccc2)cc1 [Compound 48, N-(2′-Methyl-5′-oxazol-2-yl-biphenyl-4-yl)-3-phenyl-acrylamide] | 100 to 500 |
| CCC(=O)Nc1ccc(-c2cc(-c3ncco3)ccc2C)cc1 [Compound 2, N-(2′-Methyl-5′-oxazol-2-yl-biphenyl-4-yl)-propionamide] | 50 to 100 |
| Cc1ccc(-c2ncco2)cc1-c1ccc(NC(=O)C2CC2)cc1 [Compound 5, Cyclopropanecarboxylic acid (2′-methyl-5′-oxazol-2-yl-biphenyl-4-yl)-amide] | 50 to 100 |
| Cc1ccc(-c2ncco2)cc1-c1ccc(NC(=O)C2CCC2)cc1 [Compound 6, Cyclobutanecarboxylic acid (2′-methyl-5′-oxazol-2-yl-biphenyl-4-yl)-amide] | 20 to 50 |
| Cc1ccc(-c2ncco2)cc1-c1ccc(NC(=O)CN)cc1 [Compound 11, 2-Amino-N-(2′-methyl-5′-oxazol-2-yl-biphenyl-4-yl)-acetamide] | > 1000 |

Next, values leading:

| IC50 [nM] | SMILES |
| --- | --- |
| > 1000 | CN1CCC(C(=O)Nc2ccc(-c3cc(C(F)(F)F)ccc3Cl)cc2)CC1 [Compound 133, N-(2′-chloro-5′-(trifluoromethyl)biphenyl-4-yl)-1-methylpiperidine-4-carboxamide] |
| 100 to 500 | Cc1ccc(-c2ncco2)cc1-c1ccc(NCC(C)C)cc1 [Compound 144, N-isobutyl-2′-methyl-5′-(oxazol-2-yl)biphenyl-4-amine] |
| > 1000 | CN1CCCC1C(=O)Nc1ccc(-c2cc(C(F)(F)F)ccc2Cl)cc1 (centres unmarked) [Compound 134, N-(2′-chloro-5′-(trifluoromethyl)biphenyl-4-yl)-1-methylpyrrolidine-2-carboxamide] |
| > 1000 | O=C(Nc1ccc(-c2cc(C(F)(F)F)ccc2Cl)cc1)C1CCCN1 (centres unmarked) [Compound 126, N-(2′-chloro-5′-(trifluoromethyl)biphenyl-4-yl)pyrrolidine-2-carboxamide] |
| 100 to 500 | CCCCNc1ccc(-c2cc(C(=O)OC)ccc2C)cc1 [Compound 142, methyl 4′-(butylamino)-6-methylbiphenyl-3-carboxylate] |
| > 1000 | C=CCNCc1ccc(-c2cc(-c3ncco3)ccc2C)cc1 [Compound 136, N-((2′-methyl-5′-(oxazol-2-yl)biphenyl-4-yl)methyl)prop-2-en-1-amine] |
| 100 to 500 | O=C(Nc1ccc(-c2cc(C(F)(F)F)ccc2Cl)cc1)C1CC1 [Compound 125, N-(2′-chloro-5′-(trifluoromethyl)biphenyl-4-yl)cyclopropanecarboxamide] |
| > 1000 | O=C(Nc1ccc(-c2cc(C(F)(F)F)ccc2Cl)cc1)C1CCNCC1 [Compound 129, N-(2′-chloro-5′-(trifluoromethyl)biphenyl-4-yl)piperidine-4-carboxamide] |
| > 500 | O=C(Nc1ccc(-c2cc(C(F)(F)F)ccc2Cl)cc1)C1CC2C=CC1C2 (centres unmarked) [Compound 132, N-(2′-chloro-5′-(trifluoromethyl)biphenyl-4-yl)bicyclo[2.2.1]hept-5-ene-2-carboxamide] |
| > 1000 | CCCCNCc1ccc(-c2cc(-c3ncco3)ccc2C)cc1 [Compound 135, N-((2′-methyl-5′-(oxazol-2-yl)biphenyl-4-yl)methyl)butan-1-amine] |
| > 1000 | CCCNCc1ccc(-c2cc(-c3ncco3)ccc2C)cc1 [Compound 137, N-((2′-methyl-5′-(oxazol-2-yl)biphenyl-4-yl)methyl)propan-1-amine] |
| 50 to 100 | O=C(Nc1ccc(-c2cc(C(F)(F)F)ccc2Cl)cc1)C1CC=CCC1 (centres unmarked) [Compound 127, N-(2′-chloro-5′-(trifluoromethyl)biphenyl-4-yl)cyclohex-3-enecarboxamide] |
| > 1000 | CCOC(=O)CNc1ccc(-c2cc(-c3ncco3)ccc2C)cc1 [Compound 147, ethyl 2-(2′-methyl-5′-(oxazol-2-yl)biphenyl-4-ylamino)acetate] |
| 100 to 500 | CCCCNc1ccc(-c2cc3c(cc2C)OCO3)cc1 [Compound 141, N-butyl-4-(6-methylbenzo[d][1,3]dioxol-5-yl)aniline] |
| > 1000 | Cc1ccc(-c2ncco2)cc1-c1ccc(NCCO)cc1 [Compound 145, 2-(2′-methyl-5′-(oxazol-2-yl)biphenyl-4-ylamino)ethanol] |
| 100 to 500 | O=C(Nc1ccc(-c2cc(C(F)(F)F)ccc2Cl)cc1)C1CC2CCC1C2 (centres unmarked) [Compound 130, N-(2′-chloro-5′-(trifluoromethyl)biphenyl-4-yl)bicyclo[2.2.1]heptane-2-carboxamide] |
| > 1000 | Cc1ccc(-c2ncco2)cc1-c1ccc(NC(=O)N2CCN(C)CC2)cc1 [Compound 146, 4-Methyl-piperazine-1-carboxylic acid (2′-methyl-5′-oxazol-2-yl-biphenyl-4-yl)-amide] |
| 100 to 500 | CC1CCCCC1C(=O)Nc1ccc(-c2cc(C(F)(F)F)ccc2Cl)cc1 (centres unmarked) [Compound 128, N-(2′-chloro-5′-(trifluoromethyl)biphenyl-4-yl)-2-methylcyclohexanecarboxamide] |
| 50 to 100 | Cc1ccc(-c2ncco2)cc1-c1ccc(NC(=S)Cc2ccc(F)cc2F)cc1 [Compound 124, 2-(2,4-Difluoro-phenyl)-N-(2′-methyl-5′-oxazol-2-yl-biphenyl-4-yl)-thioacetamide] |
